Where two headings read alike, the source gives them in different places.
Experiments:
[1] = molecular target: T1, hP2X2/3H (Homo sapiens, UniProt P56373+Q9UBL9); test: Calcium uptake assay (P2X antagonist assay), P2X2/3 heteromer; format: cell-based
T1 construct: expressed in transfected cells; host or cells: e.g. HEK293 or 1321N1
T1 sequence (Q9UBL9 1-471): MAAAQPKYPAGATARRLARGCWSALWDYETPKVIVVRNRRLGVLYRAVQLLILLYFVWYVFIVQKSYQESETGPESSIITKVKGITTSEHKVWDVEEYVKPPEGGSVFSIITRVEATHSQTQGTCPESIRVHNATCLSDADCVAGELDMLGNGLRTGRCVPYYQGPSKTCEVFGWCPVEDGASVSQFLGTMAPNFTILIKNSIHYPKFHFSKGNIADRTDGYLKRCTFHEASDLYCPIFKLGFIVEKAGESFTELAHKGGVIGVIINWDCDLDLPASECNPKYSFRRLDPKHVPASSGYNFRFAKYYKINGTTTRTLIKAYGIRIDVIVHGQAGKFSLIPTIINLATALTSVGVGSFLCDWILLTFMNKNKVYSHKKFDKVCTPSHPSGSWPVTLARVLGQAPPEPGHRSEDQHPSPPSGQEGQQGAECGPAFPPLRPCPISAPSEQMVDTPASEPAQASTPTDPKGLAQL
T1 sequence (P56373 1-397): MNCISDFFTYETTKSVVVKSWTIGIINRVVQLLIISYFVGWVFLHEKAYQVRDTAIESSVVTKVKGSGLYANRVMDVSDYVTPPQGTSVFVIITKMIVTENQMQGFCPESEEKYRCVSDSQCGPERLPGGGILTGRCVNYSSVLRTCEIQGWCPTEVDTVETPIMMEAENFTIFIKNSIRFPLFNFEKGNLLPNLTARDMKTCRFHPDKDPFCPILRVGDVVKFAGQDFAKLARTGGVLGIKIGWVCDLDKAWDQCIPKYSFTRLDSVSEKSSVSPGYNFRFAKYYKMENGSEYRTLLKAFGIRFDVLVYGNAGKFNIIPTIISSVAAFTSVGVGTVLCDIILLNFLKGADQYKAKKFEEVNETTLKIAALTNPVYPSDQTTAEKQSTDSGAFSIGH
How it was run: (§1)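 Stably or transiently transfected HEK293 or 1321N1 cells; the heteromer is made by adding P2X3 to a P2X2-stable line, with heteromer function isolated pharmacologically. The peak-minus-baseline FLIPR calcium signal gives % inhibition and a 4-parameter-logistic IC50.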

[2] = molecular target: T2, hP2X3 (Homo sapiens, UniProt P56373); test: Calcium uptake assay (P2X antagonist assay), P2X3 homomer; format: cell-based
T2 construct: expressed in transfected cells; host or cells: e.g. HEK293 or 1321N1
T2 sequence (P56373 1-397): T1 sequence (P56373 1-397)
How it was run: as §1

[3] = calcium uptake assay, hP2X2/3H, read-out: IC50 hP2X2/3H (nM), Ca Influx
[4] = calcium uptake assay, hP2X3, read-out: IC50 hP2X3 (nM), Ca Influx
[5] = Ca influx (calcium uptake assay), hP2X2/3H, read-out: IC50 hP2X2/3H
[6] = Ca influx (calcium uptake assay), hP2X3, read-out: IC50 hP2X3

SMILES | IC50 [1, 3] [nM] | IC50 [2, 4] [nM] | IC50 [1, 5] [nM] | IC50 [2, 6] [nM] | other results
Cc1ccc(-c2cc(C(=O)N[C@H](C)c3ccc(C)nc3)cc(C(C)O)c2)cc1 (some centres unmarked) [Compound 321] |  |  | < 100 | < 100 | 
COc1ccc([C@@H](CO)NC(=O)c2cc(-c3ccc(C)cc3)cc(S(C)(=O)=O)c2)cn1 [Compound 206, (S)—N-(2-Hydroxy-1-(6-methoxypyridin-3-yl)ethyl)-4′-methyl-5-(methylsulfonyl)biphenyl-3-carboxamide] |  |  | < 100 | < 100 | 
Cc1ccc(-c2cc(C(=O)NCc3ccc(C)nc3)cc(C(=O)N(C)CC(F)(F)F)c2)cc1 [Compound 168, N3,4′-Dimethyl-N5-((6-methylpyridin-3-yl)methyl)-N3-(2,2,2-trifluoroethyl)biphenyl-3,5-dicarboxamide] | < 100 | < 100 |  |  | 
Cc1ccc(-c2cc(C(N)=O)cc(C(=O)NCc3ccc(C)nc3)c2)cc1 [Compound 161] | 100 to 500 | < 100 |  |  | 
Cc1ccc(-c2cc(C(=O)N[C@H](C)c3cnc(C)nc3)cc(C(C)(C)O)c2)cc1 [Compound 398] |  |  |  |  | IC50 ([1]; Ca influx, calcium uptake assay, read-out: IC50 hP2X2/3H): < 100 nM; IC50 ([2]; Ca influx, calcium uptake assay, read-out: IC50 hP2X3): < 100 nM
Cc1ccc(-c2cc(C(=O)NCc3cnc(C)nc3)cc(C(=O)N3CCC(F)(F)C3)c2)cc1 [Compound 34, 5-(3,3-Difluoropyrrolidine-1-carbonyl)-4′-methyl-N-((2-methylpyrimidin-5-yl)methyl)biphenyl-3-carboxamide] | < 100 | < 100 |  |  | 
Cc1ccc(-c2cc(C(=O)NC(C)c3ccc(Cl)c(S(C)(=O)=O)c3)cc(S(C)(=O)=O)c2)nc1 (centres unmarked) [Compound 371] |  |  | 100 to 500 | < 100 | 
COc1ncc(CNC(=O)c2cc(C(=O)N3CCCC3)cc(-c3ccc(C)cc3)c2)cn1 [Compound 48] | < 100 | < 100 |  |  | 
Cc1ccc(-c2cc(C(=O)N[C@H](C)c3ccc(C)nc3)cc(C(O)c3ccccc3)c2)c(C#N)c1 (some centres unmarked) [Compound 279] |  |  | < 100 | < 100 | 
Cc1ccc(-c2cc(C(=O)NCc3ccc(C)nc3)cc(C(F)(F)F)c2)nc1 [Compound 202] |  |  | > 1000 | 100 to 500 | 
COCC(C)Oc1cc(C(=O)N[C@H](C)c2ccc(C)nc2)cc(-c2ccc(C)cc2C#N)c1 (some centres unmarked) [Compound 316] |  |  | < 100 | < 100 | 
Cc1ccc(-c2cc(C(=O)O)cc(C(=O)NCc3ccc(C)nc3)c2)cc1 [Compound 87, 4′-Methyl-5-((6-methylpyridin-3-yl)methylcarbamoyl)biphenyl-3-carboxylic acid] | 100 to 500 | 100 to 500 |  |  | 
COCc1cc(C(=O)NCc2cnc(C)nc2)cc(-c2ccc(C)cn2)c1 [Compound 275] |  |  | 501 to 1000 | 100 to 500 | 
Cc1ccc(-c2cc(C(=O)NCc3ccc(C(F)(F)F)c(F)c3)cc(C(=O)N3CC[C@@H](O)C3)c2)nc1 [Compound 151] | 100 to 500 | < 100 |  |  | 
Cc1ccc(-c2cc(C(=O)O)cc(C(=O)N[C@@H](C)CO)c2)cc1 [Compound 4] | > 1000 | > 1000 |  |  | 
Cc1ccc(-c2cc(Oc3nc4ccccc4s3)cc(C(=O)N[C@H](C)c3ccc(C)nc3)c2)nc1 [Compound 376] |  |  | < 100 | < 100 | 
Cc1ccc(-c2cc(C(=O)N[C@@H](C)CO)cc(S(=O)(=O)C3CCCC3)c2)cc1 [Compound 282] |  |  | > 1000 | < 100 | 
COCCOc1cc(C(=O)NCc2cnc(C)nc2)cc(-c2ccc(C)cc2C#N)c1 [Compound 262] |  |  | 100 to 500 | < 100 | 
COCC(OC)c1cc(C(=O)N[C@H](C)c2ccc(C)nc2)cc(-c2ccc(C)cc2)c1 (some centres unmarked) [Compound 380] |  |  | < 100 | < 100 | 

Now from value to molecule, other results behind:

IC50 [1, 3] [nM] | IC50 [2, 4] [nM] | IC50 [1, 5] [nM] | IC50 [2, 6] [nM] | SMILES | other results
100 to 500 | < 100 |  |  | Cc1ccc(-c2cc(C(=O)N[C@H](C)c3ccc(C(F)(F)F)nc3)cc(S(C)(=O)=O)c2)nc1 [Compound 181, (R)-3-(5-Methylpyridin-2-yl)-5-(methylsulfonyl)-N-(1-(6-(trifluoromethyl)pyridin-3-yl)ethyl)benzamide] | 
 |  | 100 to 500 | < 100 | COCCOc1cc(C(=O)NCc2cnc(C)nc2)cc(-c2ccc(C)cc2)c1 [Compound 250] | 
 |  | 100 to 500 | 100 to 500 | Cc1ccc(-c2cc(C(=O)NCc3ccc(Cl)cc3Cl)cc(S(C)(=O)=O)c2)nc1 [Compound 385] | 
100 to 500 | 100 to 500 |  |  | Cc1ccc(-c2cc(C(=O)NCc3ccc(C(F)(F)F)c(F)c3)cc(C(=O)N3CCCC3)c2)nc1 [Compound 145] | 
 |  | < 100 | 100 to 500 | Cc1ccc(-c2cc(Oc3ccccn3)cc(C(=O)N[C@H](C)c3ccc(C)nc3)c2)cc1 [Compound 242, (R)-4′-Methyl-N-(1-(6-methylpyridin-3-yl)ethyl)-5-(pyridin-2-yloxy)biphenyl-3-carboxamide] | 
< 100 | < 100 |  |  | Cc1ccc(-c2cc(C(=O)NCc3ccc(C)nc3)cc(C(=O)N3C(C)CCC3C)c2)cc1 (centres unmarked) [Compound 189] | 
< 100 | < 100 |  |  | Cc1ccc(-c2cc(C(=O)NCc3ccc(C)nc3)cc(C(=O)N3CCCC3)c2)cc1 [Compound 60] | 
 |  | > 1000 | < 100 | Cc1ccc(-c2cc(OC3CNCC3O)cc(C(=O)N[C@H](C)c3cnc(C)nc3)c2)nc1 (some centres unmarked) [Compound 355] | 
 |  | < 100 | < 100 | Cc1ccc(-c2cc(Oc3nc(Cl)cs3)cc(C(=O)N[C@H](C)c3ccc(C)nc3)c2)nc1 [Compound 384] | 
 |  | 100 to 500 | < 100 | Cc1ccc(-c2cc(C(=O)N[C@H](C)c3ccc(C)nc3)cc(C(O)CO)c2)nc1 (some centres unmarked) [Compound 319] | 
< 100 | < 100 |  |  | Cc1ccc(-c2cc(C(=O)NCc3ccc(C(F)(F)F)nc3)cc(C(=O)N3CC(O)C3)c2)c(C#N)c1 [Compound 64] | 
 |  | < 100 | < 100 | Cc1ncc([C@@H](C)NC(=O)c2cc(C(=O)N3CCCC3)cc(-c3ccc(Br)cc3)c2)cn1 [Compound 216] | 
< 100 | < 100 |  |  | Cc1ccc(-c2cc(C(=O)NCc3ccc(C)nc3)cc(C(=O)N3CCCC3)c2)nc1 [Compound 122, 3-(5-Methylpyridin-2-yl)-N-((6-methylpyridin-3-yl)methyl)-5-(pyrrolidine-1-carbonyl)benzamide] | 
 |  | 100 to 500 | < 100 | Cc1ccc(-c2cc(OC3CCOC3)cc(C(=O)N[C@H](C)c3cnc(C)nc3)c2)nc1 (some centres unmarked) [Compound 357] | 
< 100 | < 100 |  |  | Cc1ccc(-c2cc(C(=O)NCc3ccc(C)nc3)cc(C(=O)N3[C@H](C)CC[C@H]3C)c2)cc1 [Compound 195] | 
 |  | 100 to 500 | 100 to 500 | Cc1ccc(-c2cc(Oc3nc(-c4ccccc4)cs3)cc(C(=O)N[C@H](C)c3ccc(C)nc3)c2)nc1 [Compound 375] | 
 |  | < 100 | < 100 | Cc1ccc(-c2cc(C(=O)N[C@H](C)c3cnc(C)nc3)cc(S(=O)(=O)C3CCCC3)c2)cc1 [Compound 219, (R)-5-(Cyclopentylsulfonyl)-4′-methyl-N-(1-(2-methylpyrimidin-5-yl)ethyl)biphenyl-3-carboxamide] | 
< 100 | < 100 |  |  | Cc1ccc(-c2cc(C(=O)NCc3ccc(C)nc3)cc(C(=O)N3CC[C@@H](O)C3)c2)cc1 [Compound 94, (R)-5-(3-Hydroxypyrrolidine-1-carbonyl)-4′-methyl-N-((6-methylpyridin-3-yl)methyl)biphenyl-3-carboxamide] | 
 |  | 100 to 500 | < 100 | CCN(CC)CC(O)c1cc(C(=O)N[C@H](C)c2ccc(C)nc2)cc(-c2ccc(C)cc2C#N)c1 (some centres unmarked) [Compound 343] | 
 |  | < 100 | < 100 | Cc1ccc(-c2cc(OC3CCOC3)cc(C(=O)N[C@H](C)c3ccc(C)nc3)c2)nc1 (some centres unmarked) [Compound 333] | 
< 100 | < 100 |  |  | Cc1ccc(-c2cc(C(=O)NC(C)c3ccc(C)nc3)cc(C(=O)N3CCCC3)c2)nc1 (centres unmarked) [Compound 118] | 
 |  | < 100 | < 100 | Cc1ccc(-c2cc(C(=O)NCc3cnc(C)nc3)cc(C(O)c3ccccn3)c2)cc1 (centres unmarked) [Compound 267] | 
 |  | < 100 | < 100 | Cc1ccc(-c2cc(C(=O)NCc3ccc(C)nc3)cc(C(O)C(F)(F)F)c2)c(C#N)c1 (centres unmarked) [Compound 296] | 
> 1000 | 100 to 500 |  |  | Cc1ccc(-c2cc(C(=O)N[C@H](C)c3cnn4c3COCC4)cc(C(=O)N3CCCC3)c2)cc1 [Compound 110] | 
